Consider 22 compounds from ChEMBL document CHEMBL3045407, “Synthesis and antimicrobial activity of pyrazolinones and pyrazoles having benzothiazole moiety” (2012).

In brackets after ≈: the same amount, converted by molar mass.

Common to all, as to type: functional
The test system of one assay is Escherichia coli. Nature of the assay: Antimicrobial activity against Escherichia coli ATCC 25922 by serial plate dilution method.
A further assay has as its system Aspergillus niger. Nature of the assay: Antimicrobial activity against Aspergillus niger ATCC 9029 by serial plate dilution method.
Another assay deals with Staphylococcus aureus. Nature of the assay: Antimicrobial activity against Staphylococcus aureus ATCC 25923 by serial plate dilution method.
A further assay has as its system Candida albicans. As to the kind of experiment: Antimicrobial activity against Candida albicans ATCC 90028 by serial plate dilution method.

With `NNc1nc2ccc(Cl)cc2s1`, the minimal inhibitory concentration (MIC) – broadly, the lowest concentration found to suppress growth – in the assay on Escherichia coli stood at 501 µM (≈ 100 µg/mL); in the assay with Aspergillus niger, 1000 µM (≈ 200 µg/mL); against Staphylococcus aureus, 250 µM (≈ 50 µg/mL); in the assay with Candida albicans it was 501 µM (≈ 100 µg/mL).

Turning to `COc1ccc(N/N=C2/C(=O)N(c3nc4ccc(Cl)cc4s3)N=C2C)cc1`, the MIC with Escherichia coli was found to be 251 µM (≈ 100 µg/mL); in the assay with Aspergillus niger, 501 µM (≈ 200 µg/mL); in the assay with Staphylococcus aureus, 125 µM (≈ 50.1 µg/mL); with Candida albicans, 251 µM (≈ 100 µg/mL).

Take `CC1=NN(c2nc3ccc(Cl)cc3s2)C(=O)/C1=N/Nc1ccc(Br)cc1`: the MIC was 112 µM (≈ 50.1 µg/mL) in the assay with Escherichia coli, 223 µM (≈ 100 µg/mL) against Aspergillus niger, 13.9 µM (≈ 6.26 µg/mL) in the assay on Staphylococcus aureus and 112 µM (≈ 50.1 µg/mL) against Candida albicans.

`CC1=NN(c2nc3ccc(Cl)cc3s2)C(=O)/C1=N/Nc1ccc(F)cc1`: the MIC with Escherichia coli was determined as 129 µM (≈ 50.1 µg/mL); in the assay on Aspergillus niger, 129 µM (≈ 50.1 µg/mL); in the assay on Staphylococcus aureus it was 32.3 µM (≈ 12.5 µg/mL); in the assay on Candida albicans it was 64.6 µM (≈ 25 µg/mL).

Regarding `CC1=NN(c2nc3ccc(Cl)cc3s2)C(=O)/C1=N/Nc1ccc(Cl)cc1`, the MIC in the assay on Escherichia coli was 62 µM (≈ 25.1 µg/mL); in the assay on Aspergillus niger, 124 µM (≈ 50.1 µg/mL); against Staphylococcus aureus, 31 µM (≈ 12.5 µg/mL); with Candida albicans, 124 µM (≈ 50.1 µg/mL).

Turning to `CC1=NN(c2nc3ccc(Cl)cc3s2)C(=O)/C1=N/Nc1ccccc1Cl`, the MIC against Escherichia coli is 124 µM (≈ 50.2 µg/mL); in the assay with Aspergillus niger, 248 µM (≈ 100 µg/mL); in the assay on Staphylococcus aureus, 62 µM (≈ 25.1 µg/mL); against Candida albicans, 248 µM (≈ 100 µg/mL).

With `CC1=NN(c2nc3ccc(Cl)cc3s2)C(=O)/C1=N/Nc1ccc(C)cc1`, the MIC against Escherichia coli came out at 131 µM (≈ 50.1 µg/mL); in the assay on Aspergillus niger, 261 µM (≈ 100 µg/mL); in the assay with Staphylococcus aureus, 65.3 µM (≈ 25.1 µg/mL); in the assay with Candida albicans it was 522 µM (≈ 200 µg/mL).

Turning to `CC1=NN(c2nc3ccc(Cl)cc3s2)C(=O)/C1=N/Nc1ccccc1C`, the MIC in the assay with Escherichia coli was 261 µM (≈ 100 µg/mL); in the assay with Aspergillus niger, 261 µM (≈ 100 µg/mL); in the assay on Staphylococcus aureus, 131 µM (≈ 50.1 µg/mL); in the assay with Candida albicans, 522 µM (≈ 200 µg/mL).

On to `CC1=NN(c2nc3ccc(Cl)cc3s2)C(=O)/C1=N/Nc1ccc(C(=O)O)cc1`, for which the minimal inhibitory concentration (MIC) was found to be 242 µM (≈ 100 µg/mL) in the assay on Escherichia coli, 484 µM (≈ 200 µg/mL) in the assay with Aspergillus niger, 121 µM (≈ 50.1 µg/mL) against Staphylococcus aureus and 242 µM (≈ 100 µg/mL) in the assay with Candida albicans.

Regarding `CC1=NN(c2nc3ccc(Cl)cc3s2)C(=O)/C1=N/Nc1ccccc1C(=O)O`, the MIC turned out to be 484 µM (≈ 200 µg/mL) with Escherichia coli, 484 µM (≈ 200 µg/mL) against Aspergillus niger, 242 µM (≈ 100 µg/mL) against Staphylococcus aureus and 121 µM (≈ 50.1 µg/mL) in the assay on Candida albicans.

For `CC1=NN(c2nc3ccc(Cl)cc3s2)C(=O)/C1=N/Nc1ccccc1O`, the MIC in the assay with Escherichia coli is 260 µM (≈ 100 µg/mL); against Aspergillus niger it was 519 µM (≈ 200 µg/mL); against Staphylococcus aureus, 130 µM (≈ 50.1 µg/mL); against Candida albicans it was 260 µM (≈ 100 µg/mL).

Take `Cc1nn(-c2nc3ccc(Cl)cc3s2)c(C)c1/N=N/c1ccc(C(=O)O)cc1`: the MIC in the assay on Escherichia coli was found to be 243 µM (≈ 100 µg/mL); against Aspergillus niger, 243 µM (≈ 100 µg/mL); in the assay on Staphylococcus aureus, 122 µM (≈ 50.1 µg/mL); against Candida albicans, 243 µM (≈ 100 µg/mL).

Consider `Cc1nn(-c2nc3ccc(Cl)cc3s2)c(C)c1/N=N/c1ccccc1C(=O)O`, for which the MIC with Escherichia coli came out at 487 µM (≈ 200 µg/mL); against Aspergillus niger, 122 µM (≈ 50.1 µg/mL); in the assay on Staphylococcus aureus, 122 µM (≈ 50.1 µg/mL); in the assay on Candida albicans, 243 µM (≈ 100 µg/mL).

As for `Cc1nn(-c2nc3ccc(Cl)cc3s2)c(C)c1/N=N/c1ccccc1O`, the MIC with Escherichia coli turned out to be 522 µM (≈ 200 µg/mL); against Aspergillus niger, 522 µM (≈ 200 µg/mL); against Staphylococcus aureus, 522 µM (≈ 200 µg/mL); against Candida albicans it was 261 µM (≈ 100 µg/mL).

On to `COc1ccc(/N=N/c2c(C)nn(-c3nc4ccc(Cl)cc4s3)c2C)cc1`, for which the minimal inhibitory concentration (MIC) against Escherichia coli came to 252 µM (≈ 100 µg/mL); against Aspergillus niger, 504 µM (≈ 200 µg/mL); against Staphylococcus aureus it was 252 µM (≈ 100 µg/mL); against Candida albicans, 63 µM (≈ 25.1 µg/mL).

For `Cc1nn(-c2nc3ccc(Cl)cc3s2)c(C)c1/N=N/c1ccc(Br)cc1`, the MIC in the assay with Escherichia coli worked out at 112 µM (≈ 50.1 µg/mL); against Aspergillus niger it was 56 µM (≈ 25 µg/mL); in the assay on Staphylococcus aureus, 112 µM (≈ 50.1 µg/mL); against Candida albicans it was 112 µM (≈ 50.1 µg/mL).

As to `Cc1nn(-c2nc3ccc(Cl)cc3s2)c(C)c1/N=N/c1ccc(F)cc1`, the minimal inhibitory concentration (MIC) against Escherichia coli is 32.5 µM (≈ 12.5 µg/mL); against Aspergillus niger, 130 µM (≈ 50.1 µg/mL); in the assay with Staphylococcus aureus, 64.9 µM (≈ 25.1 µg/mL); in the assay with Candida albicans, 260 µM (≈ 100 µg/mL).

For the compound `Cc1nn(-c2nc3ccc(Cl)cc3s2)c(C)c1/N=N/c1ccc(Cl)cc1`, the MIC was 125 µM (≈ 50.2 µg/mL) against Escherichia coli, 31.2 µM (≈ 12.5 µg/mL) against Aspergillus niger, 15.6 µM (≈ 6.27 µg/mL) in the assay on Staphylococcus aureus and 249 µM (≈ 100 µg/mL) against Candida albicans.

`Cc1nn(-c2nc3ccc(Cl)cc3s2)c(C)c1/N=N/c1ccccc1Cl`: the MIC against Escherichia coli is 249 µM (≈ 100 µg/mL); with Aspergillus niger it was 125 µM (≈ 50.2 µg/mL); in the assay on Staphylococcus aureus it was 499 µM (≈ 201 µg/mL); against Candida albicans, 125 µM (≈ 50.2 µg/mL).

`Cc1ccc(/N=N/c2c(C)nn(-c3nc4ccc(Cl)cc4s3)c2C)cc1`: the minimum inhibitory concentration (MIC) in the assay on Escherichia coli turned out to be 65.6 µM (≈ 25.1 µg/mL); against Aspergillus niger it was 262 µM (≈ 100 µg/mL); in the assay on Staphylococcus aureus it was 131 µM (≈ 50.1 µg/mL); with Candida albicans, 131 µM (≈ 50.1 µg/mL).

Regarding `Cc1ccccc1/N=N/c1c(C)nn(-c2nc3ccc(Cl)cc3s2)c1C`, the minimal inhibitory concentration (MIC) stood at 262 µM (≈ 100 µg/mL) in the assay with Escherichia coli, 525 µM (≈ 200 µg/mL) against Aspergillus niger, 262 µM (≈ 100 µg/mL) with Staphylococcus aureus and 262 µM (≈ 100 µg/mL) in the assay on Candida albicans.

For the compound `CC(=O)N1CCN(c2ccc(OCC3COC(Cn4ccnc4)(c4ccc(Cl)cc4Cl)O3)cc2)CC1` (stereo unspecified) [KETOCONAZOLE], the minimal inhibitory concentration (MIC) was determined as 11.8 µM (≈ 6.25 µg/mL) in the assay with Aspergillus niger and 5.88 µM (≈ 3.12 µg/mL) against Candida albicans.
